Data on two compounds can be found in BindingDB's records for patent USRE47493 (Boehringer Ingelheim International, 2019).

The test concerns the target T1, Neutrophil elastase (Homo sapiens, UniProt P08246).
T1 sequence (P08246 whole entry): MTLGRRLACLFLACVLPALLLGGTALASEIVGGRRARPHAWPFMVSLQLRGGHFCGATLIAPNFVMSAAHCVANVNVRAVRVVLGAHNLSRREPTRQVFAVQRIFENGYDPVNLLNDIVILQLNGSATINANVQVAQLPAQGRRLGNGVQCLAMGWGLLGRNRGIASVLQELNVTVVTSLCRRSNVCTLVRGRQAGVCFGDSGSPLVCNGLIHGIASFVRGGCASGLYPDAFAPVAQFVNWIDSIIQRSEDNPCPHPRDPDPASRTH
The test is described as follows: Enzyme Inhibition Assay. The protocol:
All other materials were of the highest grade commercially available.The following buffers were used: Compound buffer: 100 mM Tris, 500 mM NaCl, adjusted to pH 7.5; Assay buffer: 100 mM Tris, 500 mM NaCl, adjusted to pH 7.5, containing 0.01% BSA.Assay conditions: Test compounds were prediluted in DMSO and subsequently in compound buffer (5% DMSO final). […] After inactivation of the enzyme, fluorescence intensities were measured at 380 nm excitation and 460 nm emission wavelengths.

Molecules are shown by their SMILES.

The IC50 is the concentration that inhibits the measured activity by half. Higher therefore signals weaker potency in that assay. Regarding `N#Cc1ccc(C2C3=C(CCCC3=O)N(c3cccc(C(F)(F)F)c3)C(=O)N2C(=O)NC2CCCC[C@@H]2O)cc1` (some centres not stated) [USRE47493, Example 70.17], it took 1.1 nM to reach half-maximal inhibition (IC50).

As to `N#Cc1ccc(C2C3=C(CCCC3=O)N(c3cccc(C(F)(F)F)c3)C(=O)N2C(=O)NC2CCC[C@@H]2O)cc1` (some centres not stated) [USRE47493, Example 70.12], the IC50 is less than 1 nM.
